Measurements reported in patent US20060024661A1, “Modulation of CRF potentiation of NMDA receptor currents via CRF receptor 2” (The Regents of the University of California, priority 2003, published 2006).
Entries after “also recorded” stand apart in the source; their conditions may differ. Where no end group is shown, it is not given here.

Experiments:
[1] = tested on: field potentials in hippocampus CA1 (CRF-R1 mediated); test: Extracellular field potentials in hippocampal slices (CA1); assay type: cell-based, mice
Source text: A bipolar stimulating electrode was placed 100-300 μm rostral to the recording electrode and was used to stimulate excitatory afferents at 0.1 Hz.

[2] = tested on: NMDAR-mediated EPSCs in VTA dopamine neurons; test: NMDAR-mediated EPSCs, whole-cell voltage-clamp in VTA slices; assay type: cell-based, mice; conditions: for potentiation of NMDAR-mediated EPSCs: +40 mV
Protocol: VTA slices from 21-29 day old C57 mice (Charles River) were prepared as previously described (Ungless et al. (2001). Nature 411: 584-587). Briefly, mice were anesthetized with halothane and then decapitated. A block of tissue containing midbrain was sliced in the horizontal plane (230 μm) in ice-cold low Ca^2+ solution (containing in mM: 126 NaCl, 1.6 KCl, 1.2 NaH2PO4, 1.2 MgCl2, 0.625 CaCl2, 18 NaHCO3 and 11 glucose). Slices were transferred to a holding chamber containing artificial cerebrospinal fluid (ACSF, in mM: 126 NaCl, 1.6 KCl, 1.2 NaH2PO4, 1.2 MgCl2, 2.5 CaCl2, 18 NaHCO3 and 11 glucose) and equilibrated at 31-34° C. for at least 1 h. Picrotoxin (100 μM) was added to the ACSF for recording, to block GABAA receptor-mediated inhibitory postsynaptic potentials. All solutions were aerated with 95% O2/5% CO2, and perfused over the slice at a rate of 2.5 ml/min. Cells were visualized with an upright microscope using infrared differential interference contrast (IR-DIC) illumination and whole-cell voltage-clamp recordings were made with an Axopatch 1D amplifier (Axon Instruments). Electrodes (2-4 MΩ) contained in mM: 117 cesium methansulfonic acid, 20 HEPES, 0.4 EGTA, 2.8 NaCl, 5 TEA-Cl, 2.5 MgATP, 0.25 MgGTP, pH 7.2-7.4, 275-285 mOsm. Dopamine cells were identified by the presence of an Ih current. A bipolar stimulating electrode was placed 100-300 μm rostral to the recording electrode and was used to stimulate excitatory afferents at 0.1 Hz. Neurons were voltage-clamped at +40 mV. Coronal hippocampal slices were also prepared and maintained in a similar manner. Extracellular field potentials were recorded in the CA1 region and evoked by stimulating the stratum radiatum. All drugs were obtained from Sigma, except human/rat CRF (Tocris), Antisauvagine-30 (PolyPeptide) and CP-154,526 (a generous gift from Pfizer). CRF fragment (6-33), ovine CRF, Antisauvagine-30, CP-154,526, U-73122 and Urocortin were first dissolved in DMSO (final concentration 0.1%). EPSCs were filtered at 2 kHz, digitized at 5-10 kHz and stored using Igor Pro software (Wavemetrics). AMPAR-mediated EPSCs were recorded at −70 mV; NMDAR-mediated EPSCs were recorded at +40 mV and measured 20 msec after the stimulation artifact when the EPSC is primarily NMDAR-mediated (11,13). Statistical significance was assessed using ANOVA on 5 min bins of EPSCs, and post hoc Fisher's LSD where appropriate.
We measured excitatory postsynaptic currents (EPSCs) recorded in putative dopamine neurons in midbrain slices from mice. EPSCs were evoked while holding neurons in voltage-clamp at +40 mV; measurements were taken at a time point when the EPSC is purely NMDA-receptor-mediated (see Methods) (Bonci and Malenka (1999). J Neurosci. 19: 3723-3730; Ungless et al. (2001). Nature 411: 584-587). […] To facilitate our subsequent investigation of the effects of CRF, we therefore sought to identify a characteristic that might help us determine, a priori, to which group a particular neuron belongs. […] We noticed that, typically, neurons that responded to CRF had large Ih currents (FIG. 1B). […] Henceforth, all subsequent experiments were conducted on cells with an Ih greater than 100 pA.

[3] = tested on: NMDARs; conditions: derived from cell lines; Patneau and Mayer 1990; cited from earlier work
[4] = molecular target: T1, CRF-BP (Homo sapiens, UniProt P24387); conditions: in words; cited from earlier work
T1 sequence (P24387 25-322): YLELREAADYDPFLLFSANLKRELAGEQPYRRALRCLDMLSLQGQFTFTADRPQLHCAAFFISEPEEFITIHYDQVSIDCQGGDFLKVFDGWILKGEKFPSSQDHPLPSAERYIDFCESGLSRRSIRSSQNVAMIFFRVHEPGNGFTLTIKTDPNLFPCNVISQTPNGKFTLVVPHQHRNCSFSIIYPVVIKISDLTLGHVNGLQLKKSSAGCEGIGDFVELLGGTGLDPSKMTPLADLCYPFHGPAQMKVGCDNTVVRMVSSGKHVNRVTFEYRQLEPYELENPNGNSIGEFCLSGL

[5] = tested on: cAMP in Ltk- cells; conditions: CRF 1 μM; Lovenberg et al. 1995; cited from earlier work
[6] = tested on: AMPAR-mediated EPSCs in VTA dopamine neurons; test: AMPAR-mediated EPSCs, whole-cell voltage-clamp in VTA slices; assay type: cell-based, mice; conditions: CRF 1 μM; voltage-clamp at -70 mV; n=4
Protocol: VTA slices from 21-29 day old C57 mice (Charles River) were prepared as previously described (Ungless et al. (2001). Nature 411: 584-587). Briefly, mice were anesthetized with halothane and then decapitated. A block of tissue containing midbrain was sliced in the horizontal plane (230 μm) in ice-cold low Ca^2+ solution (containing in mM: 126 NaCl, 1.6 KCl, 1.2 NaH2PO4, 1.2 MgCl2, 0.625 CaCl2, 18 NaHCO3 and 11 glucose). Slices were transferred to a holding chamber containing artificial cerebrospinal fluid (ACSF, in mM: 126 NaCl, 1.6 KCl, 1.2 NaH2PO4, 1.2 MgCl2, 2.5 CaCl2, 18 NaHCO3 and 11 glucose) and equilibrated at 31-34° C. for at least 1 h. Picrotoxin (100 μM) was added to the ACSF for recording, to block GABAA receptor-mediated inhibitory postsynaptic potentials. All solutions were aerated with 95% O2/5% CO2, and perfused over the slice at a rate of 2.5 ml/min. […] Extracellular field potentials were recorded in the CA1 region and evoked by stimulating the stratum radiatum. […] AMPAR-mediated EPSCs were recorded at −70 mV; NMDAR-mediated EPSCs were recorded at +40 mV and measured 20 msec after the stimulation artifact when the EPSC is primarily NMDAR-mediated (11,13). Statistical significance was assessed using ANOVA on 5 min bins of EPSCs, and post hoc Fisher's LSD where appropriate. […]

[7] = molecular target: T2, CRF-R1 (Homo sapiens, UniProt P34998); conditions: in words; cited from earlier work
T2 sequence (P34998 24-415): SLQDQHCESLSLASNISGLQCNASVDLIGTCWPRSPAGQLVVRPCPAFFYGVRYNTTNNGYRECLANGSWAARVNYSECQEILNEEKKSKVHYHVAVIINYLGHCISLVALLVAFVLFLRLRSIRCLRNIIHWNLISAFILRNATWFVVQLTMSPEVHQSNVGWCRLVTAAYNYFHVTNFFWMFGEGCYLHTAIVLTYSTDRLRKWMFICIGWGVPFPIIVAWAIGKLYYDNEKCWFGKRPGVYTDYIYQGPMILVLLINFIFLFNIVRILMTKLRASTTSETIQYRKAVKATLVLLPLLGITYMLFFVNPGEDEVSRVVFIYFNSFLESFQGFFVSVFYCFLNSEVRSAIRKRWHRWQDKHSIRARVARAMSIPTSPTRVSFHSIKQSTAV

[8] = peptide 1 μM for 8 min, small Ih (non-responding) dopamine neurons
[9] = peptide bath applied 1 μM for 8 min, large Ih (CRF-responding) dopamine neurons

CCCCN(CC)c1nc(C)nc2c1c(C)cn2-c1c(C)cc(C)cc1C [CP-154,526]
hippocampal field potential vs. baseline with CRF plus antagonist ([1]; CRF 1 μM plus 3 μM CP-154,526, n=5, P>0.05): 82.9±6.9%
block of CRF-induced potentiation of NMDAR-mediated EPSCs ([2]; CP-154,526 3 μM for 15 min, CRF 1 μM, n=6): failed to block; also recorded: does not block

Nc1ncnc2c1ncn2[C@@H]1O[C@@H]2CO[P@@](O)(=S)O[C@H]2[C@H]1O [Rp-cAMPs]
block of CRF-induced potentiation of NMDAR-mediated EPSCs ([2]; Rp-cAMPs 100 μM in patch pipette, CRF 1 μM, n=4): still observed a significant potentiation; also recorded: is not blocked

COc1ccc2c(c1)CC[C@@H]1[C@@H]2CC[C@]2(C)[C@@H](NCCCCCCN3C(=O)C=CC3=O)CC[C@@H]12 [U-73122]
block of CRF-induced potentiation of NMDAR-mediated EPSCs ([2]; U-73122 1 μM for 10 min before and during CRF application, n=5): no potentiation
block of CRF-induced potentiation of NMDAR-mediated EPSCs ([2]; U-73122 1 μM for 10 min before and during CRF application, n=5, listed as U73122): is blocked

N[C@@H](CCC(=O)O)C(=O)O [glutamate]
EC50 [3]: ~1 µM

Antisauvagine-30
NMDAR-mediated EPSC size vs. baseline with CRF in presence of antagonist ([2]; Antisauvagine-30 30 nM, CRF 1 μM, 15 mins after CRF onset, n=3, P>0.05): 113.9±17.7%
block of CRF-induced potentiation of NMDAR-mediated EPSCs ([2]; Antisauvagine-30 1M for 15 min (so in the source), CRF 1 μM, n=5): inhibited; also recorded: blocks

CRF fragment (6-33): CRF fragment that competes with CRF at the CRF-BP; CRF-BP inhibitor (ISLDLTFHLLREVLEMARAEQLAQQAHS; Corticoliberin; UniProt P06850 159-186, looked up, fragment)
affinity for CRF-BP [4]: high-affinity binding
block of CRF-induced potentiation of NMDAR-mediated EPSCs ([2]; CRF fragment (6-33) 1 μM for 10 min co-applied with CRF, n=5): did not potentiate; also recorded: inhibits

CRF: Corticotrophin-releasing factor, a 41 amino acid peptide; human/rat CRF (Tocris) (SEEPPISLDLTFHLLREVLEMARAEQLAQQAHSNRKLMEII)
hippocampal field potential vs. baseline ([1]; CRF 1 μM, 15 mins after CRF onset, n=4, P<0.05): 143.0±7.7%
activation of cAMP [5]: maximal activation
potentiation of AMPAR-mediated EPSCs [6]: did not potentiate; also recorded: does not potentiate
NMDAR-mediated EPSC size vs. baseline ([2]; CRF 100 nM, 25 mins after CRF onset, n=6, P<0.05): 128.01±15.7%
potentiation of NMDAR-mediated EPSCs [2, 8]: did not observe any effect; also recorded: do not exhibit CRF-induced potentiation
potentiation of NMDAR-mediated EPSCs [2, 9]: large, slowly developing, and transient potentiation; also recorded: exhibit CRF-induced potentiation

Urocortin II: CRF-like peptide binding selectively to CRF-R2 (IVLSLDVPIGLLQILLEQARARAAREQATTNARILARVGHC; ends and bridges not checked; UniProt Q96RP3 72-112, looked up)
affinity for CRF-R1 [7]: low affinity
affinity for CRF-BP [4]: low affinity
potentiation of NMDAR-mediated EPSCs [2, 9]: no potentiation; also recorded: does not potentiate

Urocortin: CRF-like peptide, possible endogenous CRF-R2 ligand, also binds CRF-BP (DNPSLSIDLTFHLLRTLLELARTQSQRERAEQNRIIFDSV; ends and bridges not checked; UniProt P55089 83-122, looked up)
affinity for CRF-R1 [7]: slightly lower affinity than CRF-R2
affinity for CRF-BP [4]: higher affinity than CRF
potentiation of NMDAR-mediated EPSCs [2, 8]: not
potentiation of NMDAR-mediated EPSCs [2, 9]: potentiation; also recorded: potentiates

ovine CRF: differs from human/rat CRF by 7 amino acids; binds CRF-R2, much lower affinity for CRF-BP
affinity for CRF-BP [4]: much lower affinity
potentiation of NMDAR-mediated EPSCs [2, 9]: no potentiation
potentiation of NMDAR-mediated EPSCs ([2]; peptide bath applied 1 μM for 8 min, large Ih (CRF-responding) dopamine neurons, listed as bovine CRF): does not induce potentiation
